Test results: paper PMC8209957 (Cell, 2021)

Molecular target: MEK1-C222 (Homo sapiens, UniProt Q02750, S222C/C277S/C376S)
Assay: differential scanning fluorimetry
Type: binding
Settings: thermal shift with and without Mg2+; values only in figure

Nc1ncnc2c1ncn2[C@@H]1O[C@H](COP(=O)(O)OP(=O)(O)OP(O)(O)=S)[C@@H](O)[C@H]1O [ATPγS]
differential scanning fluorimetry: to form MEK1•ATP(±Mg) and MEK1•ATPγS(±Mg)
